# Experimental data taken from patent publication US7166705B2 (Schering Corporation, priority 1999, dated 2007).
# Assays:
# [1] = target: T1, SP9144 (Homo sapiens, UniProt Q9H3N8); assay: FLIPR intracellular Ca2+ assay, HEK-293-EBNA cells transfected with pCR3.1-SP9144; format: cell-based; conditions: for rank order of potency for activation of SP9144: transfected HEK-293-EBNA cells; for activation of SP9144 (change in intracellular Ca++, Fluo3 fluorescence): HEK-293-EBNA cells transfected with pCR3.1-SP9144, drugs 1×10^−4 M to 1×10^−9 M
# T1 construct: expressed in transfected cells; host or cells: HEK-293-EBNA / HEK-293 cells, transient transfection with pCR3.1-SP9144
# T1 sequence (Q9H3N8 whole entry): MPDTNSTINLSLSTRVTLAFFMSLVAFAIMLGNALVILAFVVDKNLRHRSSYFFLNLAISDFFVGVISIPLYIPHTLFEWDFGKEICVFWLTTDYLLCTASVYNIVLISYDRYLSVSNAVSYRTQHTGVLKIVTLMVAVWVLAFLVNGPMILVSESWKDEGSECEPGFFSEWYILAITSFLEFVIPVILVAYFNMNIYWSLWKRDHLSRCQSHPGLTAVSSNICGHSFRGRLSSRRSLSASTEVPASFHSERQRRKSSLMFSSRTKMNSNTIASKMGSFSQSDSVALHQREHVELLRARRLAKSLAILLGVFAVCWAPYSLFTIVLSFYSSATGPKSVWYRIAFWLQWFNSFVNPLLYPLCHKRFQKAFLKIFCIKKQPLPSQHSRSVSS
# Protocol: (§1) 24 hours after transfection, cells were harvested and plated at 25,000 cells/well in clear bottom, black walled 96 well plates precoated with poly-D-lysine (Beckton-Dickenson) and cultured overnight in DMEM/10% FBS. For the assay, growth media was removed and replaced with 50 μl/well dye loading medium containing DMEM, 10% FBS, 20 mM HEPES pH 7.4, 2.5 mM probenecid (Sigma), […] Fluo3-AM (Sigma) (dissolved in 10% pluronic acid in DMSO). After 1 hr. at 37° C., the cell plates were washed 4 times with 250 μl Hanks Balanced Salt Solution (HBSS) lacking phenol red and containing 20 mM HEPES, 2.5 mM probenecid, and 0.1% BSA (wash buffer). A final volume of 100 μl/well of wash buffer was added to the plates, and the plates were placed into a Fluorescent Imaging Plate Reader (FLIPR, Molecular Devices) equilibrated to 37° C. […] Fluorescence was monitored once per second for 1 minute, and every 6 seconds for 2 minutes thereafter. After a 10 sec baseline measurement was established, drugs at 3× final concentration (1×10^−4 M to 1×10^−9 M) were added in a volume of 50 μl while the fluorescence continued to be monitored. Values extracted for data analysis represented the maximal fluorescence value minus the minimal fluorescence value detected following the drug addition. Drug stock solutions were initially dissolved in water (or DMSO) and diluted to 3× final concentration using wash buffer.
# [2] = target: T1, SP9144; assay: [3H]histamine binding assay (saturation and competition), membranes of HEK-293 cells transfected with SP9144; conditions: for rank order of potency for blocking [3H]-histamine binding: competition with 18 nM [3H]histamine, 70 μg membrane protein; for block of [3H]-histamine binding: at concentrations of 10 μM
# Protocol: (§2) Membrane preparation: HEK-293 cells transfected with SP9144 as described above were harvested by incubating in 5 mM EDTA/phosphate-buffered saline followed by repeated pipetting. The cells were centrifuged 5 min at 1000×g. The EDTA/PBS was decanted and an equal volume of ice-cold 50 mM Tris-HCl, pH 7.5, was added and cells were broken up with a Polytron (PT10 tip, setting 5, 30 sec). Nuclei and unbroken cells were sedimented at 1000×g for 10 min and then the supernatant was centrifuged at 50,000×g for 10 min. The supernatant was decanted, the pellet was resuspended by Polytron, a sample was taken for protein assay (bicinchoninic acid, Pierce), and the tissue was again centrifuged at 50,000×g. Pellets were stored frozen at −20° C.
# (§3) Samples were filtered on GF/B filters and washed thrice with 2 ml of cold Tris buffer. Filters were dried in a microwave oven, impregnated with Meltilex wax scintillant, and counted at 45% efficiency. […] Curves were fit to the data with Prism (GraphPad Software) nonlinear least-squares curve-fitting program and Ki values were derived from IC50 values according to Cheng and Prusoff (Cheng, Y. C., and Prusoff, W. H. (1973) Relationship between the inhibition constant (Ki) and the concentration of inhibitor which causes 50 per cent inhibition (IC50) of an enzymatic reaction. Biochem. Pharmacol. 22, 3099–3108).
# [3] = system: untransfected HEK-293 cells; assay: [3H]histamine binding to membranes from untransfected HEK-293 cells
# Protocol: as §2, §3
# [4] = system: mock transfected cells
# Protocol: as §1
SMILES,rank order of potency for activation of SP9144 ([1]; FLIPR Ca++ assay),"activation of SP9144 (change in intracellular Ca++, Fluo3 fluorescence) [1]",rank order of potency for blocking [3H]-histamine binding [2],other results
C[C@@H](N)Cc1c[nH]cn1 [(R) α-methylhistamine],Histamine>Nα-methylhistamine>(R) α-methylhistamine>>(S)α-methylhistamine (inactive),able to activate SP9144,imetit>clobenpropit>histamine>impromidine>Na-methylhistamine>burimamide>(R)-a-methylhistamine>thioperimide>>(S)-a-methylhistamine,–
C[C@H](N)Cc1c[nH]cn1 [(S)α-methylhistamine],Histamine>Nα-methylhistamine>(R) α-methylhistamine>>(S)α-methylhistamine (inactive),inactive,imetit>clobenpropit>histamine>impromidine>Na-methylhistamine>burimamide>(R)-a-methylhistamine>thioperimide>>(S)-a-methylhistamine,–
CNCCc1c[nH]cn1 [Nα-methylhistamine],Histamine>Nα-methylhistamine>(R) α-methylhistamine>>(S)α-methylhistamine (inactive),able to activate SP9144,imetit>clobenpropit>histamine>impromidine>Na-methylhistamine>burimamide>(R)-a-methylhistamine>thioperimide>>(S)-a-methylhistamine,–
NCCc1c[nH]cn1 [[^3H]-Histamine],–,–,–,specific binding of [3H]-histamine to membranes [3]: not to membranes from untransfected HEK-293 cells; specific binding of [3H]-histamine to membranes ([2]; membranes from HEK-293 cells transfected with SP9144 DNA): bound specifically
CNC(=S)NCCCCc1cnc[nH]1 [buramimide],clobenpropit>imetit>impromidine>buramimide,"able to activate SP9144, albeit with reduced efficacy",imetit>clobenpropit>histamine>impromidine>Na-methylhistamine>burimamide>(R)-a-methylhistamine>thioperimide>>(S)-a-methylhistamine,–
CN(C)CCC(c1ccc(Cl)cc1)c1ccccn1 (centres unmarked) [chlorphenirimine],–,completely inactive,–,block of [3H]-histamine binding [2]: not able to block
CN/C(=N/CCSCc1nc[nH]c1C)NC#N [cimetidine],–,completely inactive,–,block of [3H]-histamine binding [2]: not able to block
NC(=NCc1ccc(Cl)cc1)SCCCc1cnc[nH]1 [clobenpropit],clobenpropit>imetit>impromidine>buramimide,"able to activate SP9144, albeit with reduced efficacy",imetit>clobenpropit>histamine>impromidine>Na-methylhistamine>burimamide>(R)-a-methylhistamine>thioperimide>>(S)-a-methylhistamine,–
NCCc1ccc(O)c(O)c1 [dopamine],–,not by other biogenic amines,–,–
CNC[C@H](O)c1ccc(O)c(O)c1 [epinephrine],–,not by other biogenic amines,–,–
NCCc1c[nH]cn1 [histamine],Histamine>Nα-methylhistamine>(R) α-methylhistamine>>(S)α-methylhistamine (inactive),specifically activated,imetit>clobenpropit>histamine>impromidine>Na-methylhistamine>burimamide>(R)-a-methylhistamine>thioperimide>>(S)-a-methylhistamine,activation by histamine in mock transfected cells [4]: not observed
N=C(N)SCCc1cnc[nH]1 [imetit],clobenpropit>imetit>impromidine>buramimide,"able to activate SP9144, albeit with reduced efficacy",imetit>clobenpropit>histamine>impromidine>Na-methylhistamine>burimamide>(R)-a-methylhistamine>thioperimide>>(S)-a-methylhistamine,–
Cc1nc[nH]c1CSCCN=C(N)NCCCc1cnc[nH]1 [impromidine],clobenpropit>imetit>impromidine>buramimide,"able to activate SP9144, albeit with reduced efficacy",imetit>clobenpropit>histamine>impromidine>Na-methylhistamine>burimamide>(R)-a-methylhistamine>thioperimide>>(S)-a-methylhistamine,–
NC[C@H](O)c1ccc(O)c(O)c1 [nor-epinephrine],–,not by other biogenic amines,–,–
NCCc1c[nH]c2ccc(O)cc12 [serotonin],–,not by other biogenic amines,–,–
S=C(NC1CCCCC1)N1CCC(c2cnc[nH]2)CC1 [thioperimide],–,no activation of SP9144,imetit>clobenpropit>histamine>impromidine>Na-methylhistamine>burimamide>(R)-a-methylhistamine>thioperimide>>(S)-a-methylhistamine,"block of the activation of SP9144 by (R)α-methylhistamine ([1]; FLIPR Ca++ assay, antagonist mode): could be blocked in a dose dependent manner"
